Patent US6106856A (The Board of Governors for Higher Education, State of Rhode …, priority 1995, dated 2000)
One block for each compound: values may come before it.

What was measured:
[1] = Permeation through heat-separated human epidermis (Franz-diffusion cell); assay type: in vitro ADME
Experimental: (§1) […] of this solution was given on heat-separated human epidermis (breast, area 4.5 cm^2) which was mounted on a Franz-diffusion cell. The cell was filled with 23 ml of a mixture of 60 parts of a 0.9% NaCl-solution and 40 parts of polyethylene glycol 400 (v/v).

[2] = cited from earlier work
[3] = Recrystallization of applied saturated drug solution during the permeation experiment; assay type: physicochemical; conditions: applied crystal-free
Experimental: as §1

Compound: COC(=O)C1=C(C)NC(C)=C(C(=O)OC)C1c1ccccc1[N+](=O)[O-] [Nifedipine]
Flux ([1]; 8 h column): 0.35 μg/cm *h | Flux ([1]; 24 h column): 7.44 μg/cm *h | Flux ([1]; 32 h column): 6.13 μg/cm *h | Flux ([1]; 48 h column): 12.29 μg/cm *h | correlation of hypotensive and untoward side effects with plasma concentration ([2]; clinical studies): correlated with the plasma nifedipine concentration | variation of transient, high plasma levels ([2]; oral administration of conventional capsules): may vary by tenfold | interindividual variability of plasma levels ([2]; oral administration): Extraordinary interindividual variability | heart rate and blood pressure effect on rapid increase of plasma concentration ([2]; rapid increase of plasma nifedipine concentration): marked increase in heart rate and little effect on blood pressure

recrystallization during the experiment [3]: recrystallization
Compound: COCCOC(=O)C1=C(C)NC(C)=C(C(=O)OC(C)C)C1c1cccc([N+](=O)[O-])c1 (stereo not shown) [Nimodipine]

Compound: O=[N+]([O-])OCC(CO[N+](=O)[O-])O[N+](=O)[O-] [nitroglycerin]
tolerance observed in patients ([2]; transdermal nitroglycerin): tolerance observed in patients
